These compounds were tested against T1, human MRGPR X4 (Homo sapiens, UniProt Q96LA9) (assay: MRGPR X4 antagonist activity, IP-One Gq HTRF assay in stably transfected HEK cells). Conditions: not given.
T1 construct: expressed in transfected cells
Assay type: cell-based
Method in brief: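 Human MRGPR X4-expressing HEK cells, 20,000/well, were incubated with compound (10-point curve, 10 uM top, 1:3 dilutions) plus agonist (10 μM bilirubin, 20 μM deoxycholic acid or 100 μM conjugated bilirubin) in Tris/NaCl/LiCl buffer, pH 8, for 1 h at 37 °C, then 30 min at room temperature. IP-1 was read by HTRF, and IC50 was taken from the HTRF ratio.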

T1 sequence (Q96LA9 whole entry): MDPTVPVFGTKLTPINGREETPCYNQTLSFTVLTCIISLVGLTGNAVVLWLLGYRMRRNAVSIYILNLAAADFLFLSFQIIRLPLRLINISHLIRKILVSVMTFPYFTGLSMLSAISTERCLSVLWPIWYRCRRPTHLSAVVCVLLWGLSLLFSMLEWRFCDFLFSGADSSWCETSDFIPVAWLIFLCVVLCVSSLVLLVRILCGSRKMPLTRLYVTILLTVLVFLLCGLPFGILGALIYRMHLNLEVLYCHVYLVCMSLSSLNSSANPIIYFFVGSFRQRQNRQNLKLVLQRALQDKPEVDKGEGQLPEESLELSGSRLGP

| Compound | IC50 [nM] |
| --- | --- |
| Cc1ccccc1CCNC(=O)c1cn(Cc2ccc(Cl)cc2)c2ccccc12 [Compound 178] | 100 to 500 |
| O=C(NCCc1nnc2n1CCCCC2)c1nn(Cc2ccc(Cl)cc2)c2ccccc12 [Compound 6] | < 100 |
| O=C(NCCc1nnc2ccccn12)c1nn(Cc2ccc(Cl)cc2)c2ccc(Br)cc12 [Compound 529] | < 100 |
| O=C(NCCc1nnc2ccccn12)c1nn(Cc2nc3ccccc3s2)c2ccccc12 [Compound 497] | < 100 |
| O=C(NCCc1nnc2ccccn12)c1nn(Cc2ccc(Cl)cc2)c2ccc(I)cc12 [Compound 552] | < 100 |
| O=C(NCCn1cncn1)c1nn(Cc2ccc(Cl)cc2)c2ccccc12 [Compound 398] | > 2500 |
| N#Cc1ccc(Cn2nc(C(=O)NCCc3nnc4ccccn34)c3ccccc32)cc1 [Compound 408] | 100 to 500 |
| O=C(NCCc1nnc2ccccn12)c1nn(Cc2ccc3c(c2)OCO3)c2ccccc12 [Compound 508] | 100 to 500 |
| Cc1cc(Cn2nc(C(=O)NCCc3nnc4ccccn34)c3ccccc32)ccc1Cl [Compound 555] | < 100 |
| O=C(NCCc1nnc2ccccn12)c1nn(Cc2ccc(Cl)cc2)c2cc(C(F)(F)F)ccc12 [Compound 564] | < 100 |
| O=C(NCCc1nnc2ccccn12)c1nn(Cc2ccc(C(F)(F)F)cc2)c2ccc(F)cc12 [Compound 531] | < 100 |
| CC(C)(CNC(=O)c1cn(Cc2ccc(Cl)cc2)c2ccccc12)c1cccnc1 [Compound 233] | > 2500 |
| O=C(NCCc1cncc(F)c1)c1cn(Cc2ccc(Cl)cc2)c2ccccc12 [Compound 154] | < 100 |
| COc1ccc(CCNC(=O)c2nn(Cc3ccc(Cl)cc3)c3ccccc23)nc1 [Compound 61] | 100 to 500 |
| COc1ccc2nc(Cn3nc(C(=O)NCCc4nnc5ccccn45)c4ccccc43)n(C)c2c1 [Compound 567] | 1000 to 2500 |
| O=C(NCCc1nnc2ccccn12)c1nn(Cc2ccc(Cl)cc2)c2cc(Cl)ccc12 [Compound 562] | < 100 |
| Cc1ccc(Cn2cc(C(=O)NCCc3nc4ccccc4s3)c3ccccc32)cc1 [Compound 192] | 501 to 1000 |
| O=C(NCCc1cccc(F)c1)c1cn(Cc2cccc(F)c2)c2ccccc12 [Compound 199] | 501 to 1000 |
| O=C(NCCc1ccncc1)c1cn(Cc2cccc(F)c2)c2ccccc12 [Compound 219] | 1000 to 2500 |
| Cc1cccc(CCNC(=O)c2cn(Cc3ccc(Cl)cc3)c3ccccc23)n1 [Compound 153] | < 100 |

| Compound | IC50 [nM] |
| --- | --- |
| COc1cc(CCNC(=O)c2nn(Cc3ccc(Cl)cc3)c3ccccc23)ccc1O [Compound 366] | < 100 |
| N#Cc1ccc(Cn2nc(C(=O)NCCc3cccnc3)c3ccccc32)cc1 [Compound 72] | 501 to 1000 |
| Cc1occc1Cn1nc(C(=O)NCCc2nnc3ccccn23)c2ccccc21 [Compound 520] | > 2500 |
| Cn1cc2ccc(CNC(=O)c3nn(Cc4ccc(Cl)cc4)c4ccccc34)cc2n1 [Compound 391] | 1000 to 2500 |
| Cc1ccc(Cn2cc(C(=O)NCCc3cccnc3)c3ccccc32)cc1 [Compound 160] | 100 to 500 |
| CC(C)(O)c1cn(CCNC(=O)c2nn(Cc3ccc(Cl)cc3)c3ccccc23)nn1 [Compound 140] | 501 to 1000 |
| O=C(NCCn1cc(-c2cncnc2)nn1)c1nn(Cc2ccc(Cl)cc2)c2ccccc12 [Compound 145] | 501 to 1000 |
| O=C(NCCc1nnc2ccccn12)c1nn(Cc2nc3ccccc3o2)c2ccccc12 [Compound 438] | 100 to 500 |
| O=C(NCc1ccnc2[nH]ccc12)c1nn(Cc2ccc(Cl)cc2)c2ccccc12 [Compound 386] | > 2500 |
| CC(C)c1cn(CCNC(=O)c2nn(Cc3ccc(Cl)cc3)c3ccccc23)nn1 [Compound 137, 1-(4-chlorobenzyl)-N-(2-(4-isopropyl-1H-1,2,3-triazol-1-yl)ethyl)-1H-indazole-3-carboxamide] | < 100 |
| Cc1ccc(Cn2nc(C(=O)NCCc3nncn3C)c3ccccc32)cc1 [Compound 107] | 1000 to 2500 |
| O=C(NCCc1nnc2ccccn12)c1nn(CCOc2ccc(Cl)cc2)c2ccccc12 [Compound 485] | 501 to 1000 |
| Cn1c(Cn2nc(C(=O)NCCc3nnc4ccccn34)c3ccccc32)nc2ccccc21 [Compound 544] | 100 to 500 |
| O=C(NCCc1nnc2n1CCCCC2)c1nn(Cc2ccc(-c3ccccc3)cc2)c2ccccc12 [Compound 106] | 1000 to 2500 |
| O=C(NCC(O)c1cccnc1)c1cn(Cc2ccc(Cl)cc2)c2ccccc12 (centres unmarked) [Compound 150] | 100 to 500 |
| Cc1c(Cn2nc(C(=O)NCCc3nnc4ccccn34)c3ccccc32)oc2ccccc12 [Compound 573] | < 100 |
| CC(=O)Nc1cccc(CNC(=O)c2nn(Cc3ccc(Cl)cc3)c3ccccc23)c1 [Compound 377] | > 2500 |
| Cc1cc(Cl)ccc1Cn1nc(C(=O)NCCc2nc3c(s2)CCCC3)c2ccccc21 [Compound 98] | 1000 to 2500 |
| O=C(O)c1nn(Cc2cccc(OC(F)(F)F)c2)c2ccccc12 [Compound 328] | > 2500 |
| O=C(NCc1cn2cccnc2n1)c1nn(Cc2ccc(Cl)cc2)c2ccccc12 [Compound 368] | 100 to 500 |

| Compound | IC50 [nM] |
| --- | --- |
| O=C(NCCc1nnc2ccccn12)c1nn(Cc2ccc(C(F)(F)F)cc2)c2ccccc12 [Compound 14] | < 100 |
| Cc1ccc(Cn2nc(C(=O)NCCc3ccnn3C)c3ccccc32)cc1 [Compound 124] | > 2500 |
| Cc1ccc(Cn2nc(C(=O)NCCc3ccc[nH]3)c3ccccc32)cc1 [Compound 104] | 1000 to 2500 |
| O=C(O)c1nn(Cc2ccc(Cl)cc2)c2ccc(Cl)cc12 [Compound 320] | 1000 to 2500 |
| O=C(NCCc1nnc2n1CCCCC2)c1nn(Cc2ccc(OC(F)F)cc2)c2ccccc12 [Compound 24] | < 100 |
| O=C(NCCc1nnc2ccccn12)c1nn(Cc2ccc(C3CC3)cc2)c2ccccc12 [Compound 490] | < 100 |
| Cc1cccc(CCNC(=O)c2nn(Cc3ccc(Cl)cc3)c3ccccc23)n1 [Compound 55] | 100 to 500 |
| O=C(NCCc1noc(-c2ccccc2)n1)c1nn(Cc2ccc(Cl)cc2)c2ccccc12 [Compound 105] | 1000 to 2500 |
| O=C(O)c1nn(Cc2ccc(C3CCCCC3)cc2)c2ccccc12 [Compound 332] | > 2500 |
| O=C(NCCc1ccccc1F)c1cn(Cc2ccc(Cl)cc2)c2ccccc12 [Compound 170] | 100 to 500 |
| Cc1ccc(Cn2nc(C(=O)NCCc3c[nH]c4ccccc34)c3ccccc32)cc1 [Compound 135, N-(2-(1H-indol-3-yl)ethyl)-1-(4-methylbenzyl)-1H-indazole-3-carboxamide] | 1000 to 2500 |
| O=C(NCCc1cncnc1)c1nn(Cc2ccc(Cl)cc2)c2ccccc12 [Compound 102] | 1000 to 2500 |
| N#Cc1ccc2nc(CNC(=O)c3nn(Cc4ccc(Cl)cc4)c4ccccc34)cn2c1 [Compound 424] | 501 to 1000 |
| O=C(NCCc1nnc2ccccn12)c1nn(Cc2ccc3cc[nH]c3c2)c2ccccc12 [Compound 556] | < 100 |
| O=C(CNC(=O)c1nn(Cc2ccc(Cl)cc2)c2ccccc12)c1ccc(O)cc1 [Compound 382] | 501 to 1000 |
| COc1ccc2c(C(=O)NCCc3nnc4ccccn34)nn(Cc3ccc(Cl)cc3)c2c1 [Compound 563] | < 100 |
| O=C(NCCc1nnc2ccccn12)c1nn(Cc2ccc3c(c2)CCC3)c2ccc(F)cc12 [Compound 537] | < 100 |
| Cc1c(C(=O)NCCc2cccnc2)c2ccccc2n1Cc1ccc(Cl)cc1 [Compound 227] | > 2500 |
| O=C(NCc1ccc(-n2cccn2)nc1)c1nn(Cc2ccc(Cl)cc2)c2ccccc12 [Compound 369] | > 2500 |

Same assay, conditions: versus 20 μM deoxycholic acid agonist; HEK cells expressing human MRGPR X4; read-out: MRGPRX4 Antagonist Activity

| Compound | IC50 [nM] |
| --- | --- |
| Cc1cccc(S(=O)(=O)NC(=O)c2nn(Cc3ccc(OC(F)F)cc3)c3ccccc23)c1C [Compound 282] | 1000 to 2500 |
| COc1cccc(CS(=O)(=O)NC(=O)c2nn(Cc3ccc(Cl)cc3)c3ccccc23)c1 [Compound 300] | > 2500 |
| O=C(CCc1cccnc1)Nc1nn(Cc2ccc(Cl)cc2)c2ccccc12 [Compound 148, N-(1-(4-chlorobenzyl)-1H-indazol-3-yl)-3-(pyridin-3-yl)-propanamide] | 1000 to 2500 |
| Cc1ccccc1S(=O)(=O)NC(=O)c1nn(Cc2ccc(C(F)(F)F)cc2Cl)c2ccccc12 [Compound 284] | 1000 to 2500 |
| O=C(NCCc1nnc(C2CCOCC2)[nH]1)c1nn(Cc2cccc(F)c2)c2ccccc12 [Compound 129] | > 2500 |
| O=C(NCCc1nnc2ccccn12)c1nn(CCCOc2ccc(Cl)cc2)c2ccccc12 [Compound 470] | > 2500 |
| Cc1cccc(S(=O)(=O)NC(=O)c2cn(Cc3ccc(OC(F)F)cc3)c3ccccc23)c1 [Compound 313] | > 2500 |
| O=C(NS(=O)(=O)c1cccc(F)c1)c1nn(Cc2ccc(OC(F)F)cc2)c2ccccc12 [Compound 267] | 501 to 1000 |
| COc1ccccc1NC(=O)CS(=O)(=O)c1cn(Cc2ccc(Cl)cc2)c2ccccc12 [Compound 246] | 1000 to 2500 |
| O=C(NCCc1nnc2ccccn12)c1nn(CCc2ccc(Cl)cc2)c2ccccc12 [Compound 442] | > 2500 |
| N#Cc1ccc(S(=O)(=O)NC(=O)c2nn(Cc3cccc(F)c3)c3ccccc23)cc1Cl [Compound 301] | > 2500 |
| O=C(CS(=O)(=O)c1cn(Cc2ccc(Cl)cc2)c2ccccc12)Nc1ccccc1Cl [Compound 244] | 501 to 1000 |
| O=C(NS(=O)(=O)c1cccc(C(F)(F)F)c1)c1nn(Cc2ccc(OC(F)F)cc2)c2ccccc12 [Compound 265] | 501 to 1000 |
| O=C(NCC1CCS(=O)(=O)CC1)c1nn(Cc2ccc(Cl)cc2)c2ccccc12 [Compound 390] | > 2500 |
| O=C(CCn1nc(C(=O)NCCc2nnc3ccccn23)c2ccccc21)c1ccc(F)cc1 [Compound 443] | > 2500 |
| COc1ccc(C(=O)Cn2nc(C(=O)NCCc3nnc4ccccn34)c3ccccc32)cc1 [Compound 484] | 1000 to 2500 |
| CS(=O)(=O)c1ccccc1Cn1nc(C(=O)NCCc2nnc3ccccn23)c2ccccc21 [Compound 435] | > 2500 |
| O=C(CS(=O)(=O)c1cn(Cc2ccc(Cl)cc2)c2ccccc12)Nc1ccc(Cl)cc1 [Compound 256] | > 2500 |
